Assay results from patent US20020051978A1, “Methods and compositions for the identification, assessment, prevention and therapy of human cancers” (priority 2000, published 2002).

System: 60 cancer cell lines (NCI 60 cancer cell line series)
Assay: NCI-DTP in vitro cancer screen, sulforhodamine B (SRB) growth inhibition, 48 hour exposure
Assay type: cell-based, human
Method: Cancer Cell Line Preparation. Sixty cancer cell lines were obtained from the National Cancer Institute Developmental Therapeutics Program (NCI-DTP). Procedures for growing cells and testing compounds have been described previously (Scudiero et al., Cancer Res. 1988, 48:4827-4833; Stinson et al., Anticancer Res.; Myers et al., Electrophoresis 1997, 18:647-653). Cells are plated on day 0 at a density individualized for each cell line so that they will generally be sub-confluent at the end of the assay period. On day 1, a compound is added in the format for a duplicate-well, 5-dose, ten-fold interval dose response study.
No-drug, no-cell and no-growth controls are included. On day 3 the cells are processed for staining with sulforhodamine B (SRB), which reflects the amount of cell mass present at the end of a 48 hour exposure to the test agent. From dose response curves based on the SRB data, various parameters can be determined. The one used in the present study is the G15o, defined as the concentration of compound required to inhibit growth of the cell line by 50%. More precisely, the quantity used in the calculation to be described is the potency measure -log{GI50}.
Activity database (A). Table IA, consisting of the growth inhibition (GI5o) values for the 60 cell lines and 24 compounds, was created from the NCI-DTP in vitro cancer screen database. This subset of compounds was selected from the larger 23,000 compound database available from the DTP. The compounds were selected on the basis of their known mechanism of action and chemical structure. The average potency—log{GI50} was extracted from the comma-delimited text files available through the Web at http://www.nci.nih.gov/intra/lmp/jnwbio.htmrl. Subsequently, these log{GI5o} values were inspected manually and classified as indicating either Low, Medium or High sensitivity to each compound.

## CC[C@]1(O)C[C@@H]2CN(CCc3c([nH]c4ccccc34)[C@@](C(=O)OC)(c3cc4c(cc3OC)N(C)[C@H]3[C@@](O)(C(=O)OC)[C@H](OC(C)=O)[C@]5(CC)C=CCN6CC[C@]43[C@@H]65)C2)C1 [Vinblastinesulfate]
Breast BT-549 (CL5013)
  classification of cell line as Low(1), Medium(2) or High(3) sensitivity to compound: 3
Breast HS-578T CL5006
  classification of cell line as Low(1), Medium(2) or High(3) sensitivity to compound: 3
Breast MCF7(I) (CL5001)
  classification of cell line as Low(1), Medium(2) or High(3) sensitivity to compound: 3
Breast MCF7/ADRr (CL5002)
  classification of cell line as Low(1), Medium(2) or High(3) sensitivity to compound: 1
Breast MDA-MB-231 CL5005
  classification of cell line as Low(1), Medium(2) or High(3) sensitivity to compound: 2
Breast MDA-MB-435 (CL5011)
  classification of cell line as Low(1), Medium(2) or High(3) sensitivity to compound: 3
Breast MDA-N CL5012
  classification of cell line as Low(1), Medium(2) or High(3) sensitivity to compound: 3
Breast T-47D (CL5014)
  classification of cell line as Low(1), Medium(2) or High(3) sensitivity to compound: 3
CNS SF-268 CL12014
  classification of cell line as Low(1), Medium(2) or High(3) sensitivity to compound: 2
CNS SF-295 CL12015
  classification of cell line as Low(1), Medium(2) or High(3) sensitivity to compound: 2

## Carboplatin
Breast BT-549 (CL5013)
  classification of cell line as Low(1), Medium(2) or High(3) sensitivity to compound: 2
Breast HS-578T CL5006
  classification of cell line as Low(1), Medium(2) or High(3) sensitivity to compound: 2
Breast MCF7(I) (CL5001)
  classification of cell line as Low(1), Medium(2) or High(3) sensitivity to compound: 2
Breast MCF7/ADRr (CL5002)
  classification of cell line as Low(1), Medium(2) or High(3) sensitivity to compound: 2
Breast MDA-MB-231 CL5005
  classification of cell line as Low(1), Medium(2) or High(3) sensitivity to compound: 1
Breast MDA-MB-435 (CL5011)
  classification of cell line as Low(1), Medium(2) or High(3) sensitivity to compound: 1
Breast MDA-N CL5012
  classification of cell line as Low(1), Medium(2) or High(3) sensitivity to compound: 2
Breast T-47D (CL5014)
  classification of cell line as Low(1), Medium(2) or High(3) sensitivity to compound: 1
CNS SF-268 CL12014
  classification of cell line as Low(1), Medium(2) or High(3) sensitivity to compound: 3
CNS SF-295 CL12015
  classification of cell line as Low(1), Medium(2) or High(3) sensitivity to compound: 3
CNS SF-539 CL12016
  classification of cell line as Low(1), Medium(2) or High(3) sensitivity to compound: 2
CNS SNB-19 (CL12002)
  classification of cell line as Low(1), Medium(2) or High(3) sensitivity to compound: 2
CNS SNB-75(I) CL12005
  classification of cell line as Low(1), Medium(2) or High(3) sensitivity to compound: 2
CNS U251(I) CL12009
  classification of cell line as Low(1), Medium(2) or High(3) sensitivity to compound: 2
Colon COLO-250 CL4010
  classification of cell line as Low(1), Medium(2) or High(3) sensitivity to compound: 1
Colon HCC-2998 (CL4002)
  classification of cell line as Low(1), Medium(2) or High(3) sensitivity to compound: 1
Colon HCT-15 CL4015
  classification of cell line as Low(1), Medium(2) or High(3) sensitivity to compound: 1
Colon HCT-116 (CL4003)
  classification of cell line as Low(1), Medium(2) or High(3) sensitivity to compound: 2
Colon HT29(I) CL4001
  classification of cell line as Low(1), Medium(2) or High(3) sensitivity to compound: 1
Colon KM12 (CL4017)
  classification of cell line as Low(1), Medium(2) or High(3) sensitivity to compound: 1
Colon SW-620 (CL4009)
  classification of cell line as Low(1), Medium(2) or High(3) sensitivity to compound: 2
Leukemia CCRF-CEM(I) (CL7003)
  classification of cell line as Low(1), Medium(2) or High(3) sensitivity to compound: 2
Leukemia HL-60(I) (CL7008)
  classification of cell line as Low(1), Medium(2) or High(3) sensitivity to compound: 3
Leukemia K562(I) CL7005
  classification of cell line as Low(1), Medium(2) or High(3) sensitivity to compound: 2
Leukemia MOLT-4 (CL7006)
  classification of cell line as Low(1), Medium(2) or High(3) sensitivity to compound: 2
Leukemia RPMI-8226(I) (CL7010)
  classification of cell line as Low(1), Medium(2) or High(3) sensitivity to compound: 2
Leukemia SR CL7019
  classification of cell line as Low(1), Medium(2) or High(3) sensitivity to compound: 2
Melanoma LOX IMVI CL10001
  classification of cell line as Low(1), Medium(2) or High(3) sensitivity to compound: 2
Melanoma M14 (CL10014)
  classification of cell line as Low(1), Medium(2) or High(3) sensitivity to compound: 2
Melanoma MALME-3M CL10002
  classification of cell line as Low(1), Medium(2) or High(3) sensitivity to compound: 2
Cell line NSCLC NCI-H23(I), CL1001
  sensitivity class NSCLC NCI-H23(I) CL1001: 3
Cell line NSCLC NCI-H332M, CL1017
  sensitivity class NSCLC NCI-H332M CL1017: 1
Cell line NSCLC NCI-H460, CL1021
  sensitivity class NSCLC NCI-H460 CL1021: 3
Cell line NSCLC NCI-H522, CL1003
  sensitivity class NSCLC NCI-H522 CL1003: 3
Cell line Ovarian IGROV1, CL6010
  sensitivity class Ovarian IGROV1 CL6010: 3
Cell line Ovarian OVCAR-3, CL6001
  sensitivity class Ovarian OVCAR-3 CL6001: 2
Cell line Ovarian OVCAR-4, CL6002
  sensitivity class Ovarian OVCAR-4 CL6002: 2
Cell line Ovarian OVCAR-5, CL6003
  sensitivity class Ovarian OVCAR-5 CL6003: 1
Cell line Ovarian OVCAR-8, CL6005
  sensitivity class Ovarian OVCAR-8 CL6005: 2
Cell line Ovarian SK-OV-3, CL6011
  sensitivity class Ovarian SK-OV-3 CL6011: 2
Cell line Prostate DU-145, CL11003
  sensitivity class Prostate DU-145 CL11003: 2
Cell line Prostate PC-3(I), CL11001
  sensitivity class Prostate PC-3(I) CL11001: 1
Cell line Renal 786-O, CL9018
  sensitivity class Renal 786-O CL9018: 2
Cell line Renal A498, CL9013
  sensitivity class Renal A498 CL9013: 1
Cell line Renal ACHN, CL9023
  sensitivity class Renal ACHN CL9023: 2
Cell line Renal CAKI-1, CL9015
  sensitivity class Renal CAKI-1 CL9015: 2
Cell line Renal RXF-393, CL9016
  sensitivity class Renal RXF-393 CL9016: 2
Cell line Renal SN12C, CL9008
  sensitivity class Renal SN12C CL9008: 2
Cell line Renal TK10, CL9024
  sensitivity class Renal TK10 CL9024: 1
Cell line Renal UO-31, CL9004
  sensitivity class Renal UO-31 CL9004: 2
Number of the 60 cell lines classified High (3) sensitivity
  3 # of High: 8
Number of the 60 cell lines classified Low (1) sensitivity
  1 # of Low: 14
Number of the 60 cell lines classified Medium (2) sensitivity
  2 # of Medium: 38
